Laboratory results as given in PubChem BioAssay (NCI).
Converted amounts (≈) assume the structure as drawn.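 Results reflect a 48-hour exposure of cells in 96-well plates to compound at five concentrations. GI50: concentration for 50% inhibition of growth. TGI denotes the concentration required for complete inhibition of growth.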 Non-standard residues stand in square brackets, D forms with d. Residues, ends and D or L forms follow the SMILES beside them. *: point of attachment. hSer = N[CH](CCO)C(=O)O; Boc = CC(C)(C)OC(=O)*

Columns and labels:
Assay in all cases: NCI-60 cell line screen, 48 h
SF-539 CNS = system: SF-539 CNS
OVCAR-4 ovarian = system: OVCAR-4 ovarian
SK-MEL-28 melanoma = system: SK-MEL-28 melanoma
ACHN renal = system: ACHN renal
HL-60(TB) leukemia = system: HL-60(TB) leukemia
SK-OV-3 ovarian = system: SK-OV-3 ovarian
HS 578T breast = system: HS 578T breast
DU-145 prostate = system: DU-145 prostate
NCI-H226 lung = system: NCI-H226 lung
A498 renal = system: A498 renal
COLO 205 colon = system: COLO 205 colon
OVCAR-5 ovarian = system: OVCAR-5 ovarian
SW-620 colon = system: SW-620 colon
MDA-MB-231 breast = system: MDA-MB-231 breast
MALME-3M melanoma = system: MALME-3M melanoma
UACC-62 melanoma = system: UACC-62 melanoma
NCI/ADR-RES ovarian = system: NCI/ADR-RES ovarian
MCF7 breast = system: MCF7 breast
CCRF-CEM leukemia = system: CCRF-CEM leukemia
IGROV1 ovarian = system: IGROV1 ovarian
SF-268 CNS = system: SF-268 CNS
K-562 leukemia = system: K-562 leukemia
A549 NSCLC = system: A549 NSCLC
T-47D breast = system: T-47D breast
MDA-MB-435 = system: MDA-MB-435
MOLT-4 leukemia = system: MOLT-4 leukemia
NCI-H460 lung = system: NCI-H460 lung
SR leukemia = system: SR leukemia
SK-MEL-2 melanoma = system: SK-MEL-2 melanoma
SK-MEL-5 melanoma = system: SK-MEL-5 melanoma
CAKI-1 renal = system: CAKI-1 renal
RPMI-8226 leukemia = system: RPMI-8226 leukemia
M14 melanoma = system: M14 melanoma
RXF 393 renal = system: RXF 393 renal
U251 CNS = system: U251 CNS
HOP-62 NSCLC = system: HOP-62 NSCLC
SNB-75 CNS = system: SNB-75 CNS
NCI-H23 lung = system: NCI-H23 lung
786-0 renal = system: 786-0 renal
NCI-H522 lung = system: NCI-H522 lung
OVCAR-8 ovarian = system: OVCAR-8 ovarian
KM12 colon = system: KM12 colon
LOX IMVI melanoma = system: LOX IMVI melanoma
OVCAR-3 ovarian = system: OVCAR-3 ovarian
HCC-2998 colon = system: HCC-2998 colon
HCT-15 colon = system: HCT-15 colon
HCT-116 colon = system: HCT-116 colon
SNB-19 CNS = system: SNB-19 CNS
HOP-92 NSCLC = system: HOP-92 NSCLC

In the case of `O=C(Nc1ccc2ncnc(Nc3ccc(Oc4cccc(F)c4)c(Cl)c3)c2c1)c1ccc(CNCCO)cc1`, the GI50 (SF-539 CNS) was 1.62 µM, the TGI (SF-539 CNS) was 3.01 µM and the GI50 (OVCAR-4 ovarian) was 1.88 µM. The TGI (OVCAR-4 ovarian) was 4.81 µM, the GI50 (SK-MEL-28 melanoma) was 1.69 µM and the TGI (SK-MEL-28 melanoma) was 3.08 µM. It also gave a GI50 (ACHN renal) of 1.59 µM, a TGI (ACHN renal) of 3.05 µM and a GI50 (HL-60(TB) leukemia) of 2.06 µM. For the same compound, the TGI (HL-60(TB) leukemia) was 4.74 µM, the GI50 (SK-OV-3 ovarian) was 1.14 µM and the TGI (SK-OV-3 ovarian) was 2.53 µM. For the same compound, the GI50 (HS 578T breast) was 1.64 µM, the TGI (HS 578T breast) was 4.42 µM and the GI50 (DU-145 prostate) was 1.8 µM. For the same compound, the TGI (DU-145 prostate) was 3.44 µM, the GI50 (NCI-H226 lung) was 19.7 µM and the TGI (NCI-H226 lung) was 56.1 µM. For the same compound, the GI50 (A498 renal) was 2.58 µM, the TGI (A498 renal) was 23.4 µM and the GI50 (COLO 205 colon) was 1.8 µM. It also gave a TGI (COLO 205 colon) of 3.56 µM, a GI50 (OVCAR-5 ovarian) of 1.63 µM and a TGI (OVCAR-5 ovarian) of 3.17 µM. It also gave a GI50 (SW-620 colon) of 1.83 µM, a TGI (SW-620 colon) of 3.52 µM and a GI50 (MDA-MB-231 breast) of 1.73 µM. The TGI (MDA-MB-231 breast) was 3.27 µM, the GI50 (MALME-3M melanoma) was 1.52 µM and the TGI (MALME-3M melanoma) was 2.93 µM. The GI50 (UACC-62 melanoma) was 1.7 µM, the TGI (UACC-62 melanoma) was 3.07 µM and the GI50 (NCI/ADR-RES ovarian) was 7.2 µM. The TGI (NCI/ADR-RES ovarian) was 36.9 µM.

With `O=CC(O)C(O)C(O)C(O)COP(=O)(O)Cc1ccccc1` (stereo not given) the TGI (MCF7 breast) was > 10 µM, the TGI (CCRF-CEM leukemia) was > 10 µM and the TGI (IGROV1 ovarian) was > 10 µM. The TGI (SF-268 CNS) was > 10 µM, the TGI (K-562 leukemia) was > 10 µM and the TGI (A549 NSCLC) was > 10 µM. The TGI (T-47D breast) was > 10 µM, the TGI (OVCAR-4 ovarian) was > 10 µM and the TGI (SK-MEL-28 melanoma) was > 10 µM. The TGI (MDA-MB-435) was > 10 µM, the TGI (ACHN renal) was > 10 µM and the TGI (MOLT-4 leukemia) was > 10 µM. For the same compound, the TGI (NCI-H460 lung) was > 10 µM, the TGI (SR leukemia) was > 10 µM and the TGI (SK-MEL-2 melanoma) was > 10 µM. The TGI (HL-60(TB) leukemia) was > 10 µM, the TGI (SK-MEL-5 melanoma) was > 10 µM and the TGI (CAKI-1 renal) was > 10 µM. For the same compound, the TGI (SK-OV-3 ovarian) was > 10 µM, the TGI (RPMI-8226 leukemia) was > 10 µM and the TGI (M14 melanoma) was > 10 µM. The TGI (RXF 393 renal) was > 10 µM, the TGI (U251 CNS) was > 10 µM and the TGI (COLO 205 colon) was > 10 µM. For the same compound, the TGI (OVCAR-5 ovarian) was > 10 µM, the TGI (SW-620 colon) was > 10 µM and the TGI (HOP-62 NSCLC) was > 10 µM. For the same compound, the TGI (SNB-75 CNS) was > 10 µM, the TGI (NCI-H23 lung) was > 10 µM and the TGI (786-0 renal) was > 10 µM. For the same compound, the TGI (MALME-3M melanoma) was > 10 µM, the TGI (UACC-62 melanoma) was > 10 µM and the TGI (NCI/ADR-RES ovarian) was > 10 µM.

`COCCC(NC(=O)C(CC(C)C)NC(=O)OC(C)(C)C)C(=O)OC` (stereo not drawn) (Boc-Leu-[hSer](Me)-OMe; configuration not given here) showed a GI50 (NCI-H522 lung) of 31.3 µg/mL, a TGI (NCI-H522 lung) of 80.1 µg/mL (≈ 222 µM) and a GI50 (OVCAR-8 ovarian) of 88.3 µg/mL (≈ 245 µM). The GI50 (KM12 colon) was 89.9 µg/mL (≈ 250 µM), the GI50 (MCF7 breast) was 59.7 µg/mL (≈ 166 µM) and the GI50 (LOX IMVI melanoma) was 65.1 µg/mL (≈ 181 µM). The GI50 (CCRF-CEM leukemia) was 17.8 µg/mL (≈ 49.4 µM), the GI50 (K-562 leukemia) was 63.1 µg/mL (≈ 175 µM) and the GI50 (OVCAR-3 ovarian) was 78.4 µg/mL (≈ 217 µM). For the same compound, the GI50 (OVCAR-4 ovarian) was 70.2 µg/mL, the GI50 (MOLT-4 leukemia) was 26 µg/mL (≈ 72.1 µM) and the TGI (MOLT-4 leukemia) was 70.2 µg/mL. For the same compound, the GI50 (NCI-H460 lung) was 70.1 µg/mL (≈ 194 µM), the GI50 (SR leukemia) was 31.2 µg/mL (≈ 86.7 µM) and the GI50 (HCC-2998 colon) was 50.1 µg/mL (≈ 139 µM). It also gave a GI50 (HCT-15 colon) of 64.9 µg/mL (≈ 180 µM), a GI50 (HL-60(TB) leukemia) of 37 µg/mL and a GI50 (M14 melanoma) of 48.6 µg/mL (≈ 135 µM). The GI50 (HCT-116 colon) was 91.6 µg/mL (≈ 254 µM).

Compound `Nc1nc(Cl)c(N=Nc2ccc(Cl)cc2)c(NCC2(CO)CC2)n1` has a GI50 (NCI-H522 lung) of 47.5 µM, a GI50 (SNB-19 CNS) of 50 µM and a GI50 (SF-268 CNS) of 40.9 µM. The GI50 (ACHN renal) was 0.411 µM, the GI50 (HOP-92 NSCLC) was 1.08 µM and the TGI (HOP-92 NSCLC) was 38.1 µM. The GI50 (CAKI-1 renal) was 5.06 µM, the GI50 (SK-OV-3 ovarian) was 14.2 µM and the GI50 (HS 578T breast) was 12.6 µM. For the same compound, the GI50 (RXF 393 renal) was 33.5 µM, the GI50 (A498 renal) was 90.9 µM and the GI50 (MDA-MB-231 breast) was 11.1 µM. It also gave a GI50 (HOP-62 NSCLC) of 28.7 µM and a GI50 (SNB-75 CNS) of 10.3 µM.
